From patent US10611750B2, “Tetrahydroquinoline compositions as bet bromodomain inhibitors” (FORMA Therapeutics, Inc., priority 2013, dated 2020)
Values joined by “and” are separate entries in the source; they are usually repeats but may differ in a detail not shown here. Equal entries are not always repeated. Where two headings read alike, the source gives them in different places.

Assays:
[1] = target: T1, BRD4 Bromodomain 2 (BRD4 BD2) (Homo sapiens, UniProt O60885); experiment: AlphaScreen binding assay, BRD4 BD2; settings: His-tagged BRD4 BD2 100 nM, biotinylated H4 (1-21) K5/8/12/16 tetra-acetylated peptide 100 nM, compounds listed under IC50 range headings
T1 construct: 333-460 were cloned, expressed, and purified to homogeneity
Procedure, shortened: (§1)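 An AlphaScreen competition format was used with His-BRD4 BD1 or BD2 and biotin-H4 K5/8/12/16-acetyl peptide, each at matched final levels of 50 nM (BD1) or 100 nM (BD2). Incubation in HEPES/NaCl buffer with 0.1% BSA and 0.01% Triton X-100 ran ≥1 h before IC50 determination.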

[2] = target: T2, BRD4 Bromodomain 1 (BRD4 BD1) (Homo sapiens, UniProt O60885); experiment: AlphaScreen binding assay, BRD4 BD1; settings: His-tagged BRD4 BD1 50 nM, biotinylated H4 (1-21) K5/8/12/16 tetra-acetylated peptide 50 nM, compounds listed under IC50 range headings
T2 construct: 44-168 and BRD4 BD2
Procedure, shortened: as §1

[3] = system: acute myelocytic leukemia (AML) cell line MV4-11; experiment: Oncology cell growth assay (3-day proliferation, CellTiter-Glo); format: cell-based; settings: Homo sapiens, MV4-11 cells, 3000 cells/well, compounds listed under IC50 range headings, read-out: MV411 IC50 (gIC50, inhibition of proliferation)
Procedure, shortened: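 72 h, 37° C, 5% CO2; MV4-11, 3000 cells/well, RPMI 1640 + 10% FBS. Compound final 10, 3.3, 1.1, 0.37, 0.12, 0.041, 0.013, 0.0045 μM. Readout CellTiter-Glo luminescence; gIC50 by 4-parameter logistic fit, normalised to DMSO and no-cell background.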

Compound | IC50 [1] [nM] | IC50 [2] | IC50 ([3]; MV4-11, 72 h) [nM] | IC50 ([3]; 72 hours) [nM]
CC(=O)N1c2ccc(-c3cnn(C4CCNCC4)c3)c(Oc3ccc(C(N)=O)cc3)c2CC[C@@H]1C [I-155, (S)-4-(1-acetyl-2-methyl-6-(1-(piperidin-4-yl)-1H-pyrazol-4-yl)-1,2,3,4-tetrahydroquinolin-5-yloxy)benzamide] | 50 to 500 | 100 to 1000 nM | > 1000 | 
CC(=O)N1c2ccc(-c3cnn(C4CC4)c3)c(Oc3ccc(Cl)cc3)c2CC[C@@H]1C [I-226, (S)-1-(5-(4-chlorophenoxy)-6-(1-cyclopropyl-1H-pyrazol-4-yl)-2-methyl-3,4-dihydroquinolin-1(2H)-yl)ethanone] | 50 to 500 | 100 to 1000 nM | < 500 | 
CC(=O)N1c2ccc(-c3cnn(C4CC4)c3)c(Oc3nccs3)c2CC[C@@H]1C [I-83, (S)-1-(6-(1-cyclopropyl-1H-pyrazol-4-yl)-2-methyl-5-(thiazol-2-yloxy)-3,4-dihydroquinolin-1(2H)-yl)ethanone] | < 50 | 1000 to 10000 nM | < 500 | 
CC(=O)N1c2ccc(-c3cnn(CCO)c3)c(Oc3ncccn3)c2CC[C@@H]1C [I-80, (S)-1-(6-(1-(2-hydroxyethyl)-1H-pyrazol-4-yl)-2-methyl-5-(pyrimidin-2-yloxy)-3,4-dihydroquinolin-1 (2H)-yl)ethanone] | < 50 | 100 to 1000 nM | < 500 | 
COC(=O)N1c2ccc(-c3cnn(C4CCNCC4)c3)c(Oc3ccc(Cl)cc3)c2CC[C@@H]1C [I-159, (S)-methyl 5-(4-chlorophenoxy)-2-methyl-6-(1-(piperidin-4-yl)-1H-pyrazol-4-yl)-3,4-dihydroquinoline-1(2H)-carboxylate] | < 50 | 100 to 1000 nM | < 500 | 
COC(=O)N1c2ccc(-c3cnn(C4CC4)c3)c(OC3CN(C(C)C)C3)c2CC[C@@H]1C [I-252, (S)-methyl 6-(1-cyclopropyl-1H-pyrazol-4-yl)-5-(1-isopropylazetidin-3-yloxy)-2-methyl-3,4-dihydroquinoline-1(2H)-carboxylate] | ≥ 500 | 1000 to 10000 nM | > 1000 | 
CC(=O)N1c2ccc(-c3cnn(C4CC4)c3)c(O[C@H](F)C(N)=O)c2CC[C@@H]1C (single isomer, unassigned) [I-63] | 50 to 500 | 1000 to 10000 nM |  | > 1000
COC(=O)N1c2ccc(-c3cnn(C4CC4)c3)c(OCC(=O)N(C)C3CC3)c2CC[C@@H]1C [I-22, (S)-methyl 5-(2-(cyclopropyl(methyl)amino)-2-oxoethoxy)-6-(1-cyclopropyl-1H-pyrazol-4-yl)-2-methyl-3,4-dihydroquinoline-1(2H)-carboxylate] | < 50 | 100 to 1000 nM | < 500 | 
COC(=O)N1c2ccc(-c3cnn(C4CCN(C)C4)c3)c(Oc3ccc(F)cc3)c2CC[C@@H]1C (stereo partly drawn) [I-249, (2S)-methyl 5-(4-fluorophenoxy)-2-methyl-6-(1-(1-methylpyrrolidin-3-yl)-1H-pyrazol-4-yl)-3,4-dihydroquinoline-1(2H)-carboxylate] | < 50 | 100 to 1000 nM | < 500 | 
COC(=O)N1c2ccc(-c3cnn(C4CC4)c3)c(OCC(C)(C)CO)c2CC[C@@H]1C [I-17, (S)-methyl 6-(1-cyclopropyl-1H-pyrazol-4-yl)-5-(3-hydroxy-2,2-dimethylpropoxy)-2-methyl-3,4-dihydroquinoline-1(2H)-carboxylate] | 50 to 500 | 100 to 1000 nM | 500 to 1000 | 
COC(=O)N1c2ccc(-c3cnn(C4CC4)c3)c(O[C@H](F)C(N)=O)c2CC[C@@H]1C [I-19, (S)-methyl 5-((R)-2-amino-1-fluoro-2-oxoethoxy)-6-(1-cyclopropyl-1H-pyrazol-4-yl)-2-methyl-3,4-dihydroquinoline-1(2H)-carboxylate] | 50 to 500 | 1000 to 10000 nM | > 1000 | 
CC(=O)N1c2ccc(-c3cnn(C4CCNCC4)c3)c(Oc3ncccc3C(F)(F)F)c2CC[C@@H]1C [I-141, (S)-1-(2-methyl-6-(1-(piperidin-4-yl)-1H-pyrazol-4-yl)-5-(3-(trifluoromethyl)pyridin-2-yloxy)-3,4-dihydroquinolin-1(2H)-yl)ethanone] | < 50 | 100 to 1000 nM | < 500 | 
CC(=O)N1c2ccc(-c3cnn(C4CCNCC4)c3)c(Oc3ccccc3F)c2CC[C@@H]1C [I-258, (S)-1-(5-(2-fluorophenoxy)-2-methyl-6-(1-(piperidin-4-yl)-1H-pyrazol-4-yl)-3,4-dihydroquinolin-1 (2H)-yl)ethanone] | < 50 | 100 to 1000 nM | < 500 | 
CC(=O)N1c2ccc(-c3cnn(C4CCNCC4)c3)c(Oc3ccc(F)cc3)c2CC[C@@H]1C [I-190, (S)-1-(5-(4-fluorophenoxy)-2-methyl-6-(1-(piperidin-4-yl)-1H-pyrazol-4-yl)-3,4-dihydroquinolin-1(2H)-yl)ethanone] | 50 to 500 | 100 to 1000 nM | < 500 | 
COC(=O)N1c2ccc(-c3cnn(C4CCN(C)CC4)c3)c(OC3CCC3)c2CC[C@@H]1C [I-285, Methyl (S)-5-cyclobutoxy-2-methyl-6-(1-(1-methylpiperidin-4-yl)-1H-pyrazol-4-yl)-3,4-dihydroquinoline-1(2H)-carboxylate] | < 50 | 100 to 1000 nM | < 500 | 
CCCOc1c(C2CCN(C(=O)OC)CC2)ccc2c1CC[C@H](C)N2C(C)=O [I-357, methyl (S)-4-(1-acetyl-2-methyl-5-propoxy-1,2,3,4-tetrahydroquinolin-6-yl)piperidine-1-carboxylate] | ≥ 500 | ≥ 10000 nM |  | > 1000
COC(=O)N1c2ccc(-c3cnn(C4CCN(C)CC4)c3)c(Oc3ccc(Cl)cc3C#N)c2CC[C@@H]1C [I-245, methyl (S)-5-(4-chloro-2-cyanophenoxy)-2-methyl-6-(1-(1-methylpiperidin-4-yl)-1H-pyrazol-4-yl)-3,4-dihydroquinoline-1(2H)-carboxylate] | < 50 | 100 to 1000 nM and ≥ 10000 nM | < 500 | 

More lines, main results first:

IC50 [1] [nM] | IC50 [2] | IC50 ([3]; MV4-11, 72 h) [nM] | Compound | IC50 ([3]; 72 hours) [nM]
< 50 | 100 to 1000 nM | 500 to 1000 | COc1cnc(Oc2c(-c3cnn(CCO)c3)ccc3c2CC[C@H](C)N3C(C)=O)nc1 [I-546] | 
50 to 500 | 1000 to 10000 nM | 500 to 1000 | COC(=O)N1c2ccc(-c3cnn(CCS(C)(=O)=O)c3)c(Oc3ncccc3C(F)(F)F)c2CC[C@@H]1C [I-562] | 
< 50 | 100 to 1000 nM | < 500 | CC(=O)N1c2ccc(-c3cnn(C4CCNCC4)c3)c(Oc3ncc(F)cn3)c2CC[C@@H]1C [I-511] | 
50 to 500 | 1000 to 10000 nM | 500 to 1000 | COC(=O)N1c2ccc(-c3cnn(CCO)c3)c(Oc3ncc(C)cn3)c2CC[C@@H]1C [I-584] | 
50 to 500 | 100 to 1000 nM | < 500 | CC(=O)N1c2ccc(-c3cnn(C4CCNCC4)c3)c(Oc3ccc(C(F)(F)F)cn3)c2CC[C@@H]1C [I-512] | 
50 to 500 | 100 to 1000 nM | < 500 | COC(=O)N1c2ccc(-c3cnn(C4CC4)c3)c(Oc3ncc(C)cn3)c2CC[C@@H]1C [I-585] | 
50 to 500 | 1000 to 10000 nM | < 500 | CC(=O)N1c2ccc(-c3cnn(C4CCNCC4)c3)c(Oc3ncccn3)c2CC[C@@H]1C [I-513] | 
50 to 500 | 1000 to 10000 nM | 500 to 1000 | COC(=O)N1c2ccc(-c3cnn(CC(C)(C)O)c3)c(Oc3cnccn3)c2CC[C@@H]1C [I-559] | 
50 to 500 | 1000 to 10000 nM | < 500 | C[C@H]1CCc2c(ccc(-c3cnn(C4CCNCC4)c3)c2Oc2ccc(C(F)(F)F)cn2)N1C(=O)C1CC1 [I-541] | 
< 50 | 100 to 1000 nM | < 500 | CC(=O)N1c2ccc(-c3cnn(C4CC4)c3)c(Oc3ccc(Cl)cn3)c2CC[C@@H]1C [I-288, (S)-1-(5-(5-chloropyridin-2-yloxy)-6-(1-cyclopropyl-1H-pyrazol-4-yl)-2-methyl-3,4-dihydroquinolin-1(2H)-yl)ethanone] | 
< 50 | 100 to 1000 nM | < 500 | CC(=O)N1c2ccc(-c3cnn(C4CCNCC4)c3)c(Oc3ncc(C(F)(F)F)cc3F)c2CC[C@@H]1C [I-521] | 
50 to 500 | 1000 to 10000 nM | < 500 | CC(=O)N1c2ccc(-c3cnn(C4CC4)c3)c(Oc3ccccc3)c2CCC1C (stereo not drawn) [I-597] | 
50 to 500 | 1000 to 10000 nM | < 500 | CC(=O)N1c2ccc(-c3ccc4c(c3)CCN4S(C)(=O)=O)c(Oc3ncc(F)cn3)c2CC[C@@H]1C [I-548] | 
50 to 500 | 1000 to 10000 nM | 500 to 1000 | CC(=O)N1c2ccc(-c3cnn(C4CCNCC4)c3)c(Oc3cc(N4CCOCC4)ncn3)c2CC[C@@H]1C [I-516] | 
50 to 500 | 1000 to 10000 nM | 500 to 1000 | COC(=O)N1c2ccc(-c3cnn(C4CCNCC4)c3)c(Oc3ncc(C4CC4)cn3)c2CC[C@@H]1C [I-532] | 
50 to 500 | 100 to 1000 nM | < 500 | CC(=O)N1c2ccc(-c3cnn(CCS(C)(=O)=O)c3)c(OCC3CCOCC3)c2CC[C@@H]1C [I-413] | 
